Measurements taken from PubChem BioAssay (NCI).
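1) Cells in 96-well plates. 2) Compound, 48 h, 5 concentrations. 3) Linear interpolation between surrounding doses. 4) Unreached endpoint = highest concentration. GI50 marks 50% less growth. Definition used: TGI = concentration required for complete inhibition of growth.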

Assays:
Experiment in all cases: growth of human tumour cells (NCI), 48 h
CAKI-1 renal = tested on: CAKI-1 renal
UO-31 renal = tested on: UO-31 renal
RXF 393 renal = tested on: RXF 393 renal
M14 melanoma = tested on: M14 melanoma
IGROV1 ovarian = tested on: IGROV1 ovarian
U251 CNS = tested on: U251 CNS
HCT-15 colon = tested on: HCT-15 colon
NCI-H226 lung = tested on: NCI-H226 lung
SN12C renal = tested on: SN12C renal
HCC-2998 colon = tested on: HCC-2998 colon

Structure (SMILES) | GI50 (CAKI-1 renal) [µM] | TGI (CAKI-1 renal) [µM] | GI50 (UO-31 renal) [µM] | TGI (UO-31 renal) [µM] | GI50 (RXF 393 renal) [µM] | TGI (RXF 393 renal) [µM] | GI50 (M14 melanoma) [µM] | TGI (M14 melanoma) [µM] | GI50 (IGROV1 ovarian) [µM] | TGI (IGROV1 ovarian) [µM] | GI50 (U251 CNS) [µM] | TGI (U251 CNS) [µM] | GI50 (HCT-15 colon) [µM] | TGI (HCT-15 colon) [µM] | GI50 (NCI-H226 lung) [µM] | TGI (NCI-H226 lung) [µM] | GI50 (SN12C renal) [µM] | TGI (SN12C renal) [µM] | TGI (HCC-2998 colon) [µM] | GI50 (HCC-2998 colon) [µM]
CCOC1Oc2ccccc2C(=O)/C1=C\Nc1ccc(C(=O)O)c(O)c1 (configuration not stated) | 20.9 | 44 | 40.2 | > 100 | 16.9 | 41.9 | 17.3 | 36 | 43.9 | > 100 | 19.1 | 46.5 | 16.4 | 45.9 | 28.1 | 80.1 | 16.5 | 36.7 | – | –
O=C(CO)CC(=O)C(=O)Nc1cccc(C(F)(F)F)c1 | – | > 100 | – | > 100 | – | – | – | > 100 | – | > 100 | – | – | – | > 100 | – | > 100 | – | > 100 | > 100 | –
CC1(C)C2=CCCC(=O)[C@@]2(C)CC[C@@H]1O | – | > 100 | – | > 100 | – | > 100 | – | > 100 | – | > 100 | – | > 100 | – | – | – | > 100 | – | > 100 | > 100 | –
CCCCCCCCCCCCCP(=O)(OC)OC | – | 32.7 | – | 29.8 | – | 48.4 | – | 34.7 | – | 35.5 | – | 32.9 | – | 31.6 | – | 35.9 | – | 35 | 36 | –
O=C(O)CC(S)C(=O)O.[Li+].[Sb] (configuration not stated) | > 100 | > 100 | > 100 | > 100 | > 100 | > 100 | 39.5 | > 100 | > 100 | > 100 | 39.9 | > 100 | > 100 | > 100 | > 100 | > 100 | > 100 | > 100 | – | –
c1ccc(N2CCN(CCCN3CCc4c([nH]c5ccccc45)C3c3cccnc3)CC2)cc1 (configuration not stated) | – | > 100 | – | > 100 | – | > 100 | – | 59.8 | – | > 100 | – | > 31.6 | – | > 100 | – | > 100 | – | 99.2 | > 100 | –
CC1OC(OC2C(O)C(OCCc3ccc(O)c(O)c3)OC(CO)C2OC(=O)/C=C/c2ccc(O)c(O)c2)C(O)C(O)C1O (configuration not stated) | 40 | > 100 | 23.7 | 57.6 | – | – | > 100 | > 100 | 47.6 | > 100 | – | – | > 100 | > 100 | – | – | 20.5 | 36.8 | 35.6 | 19
CN(C)c1ccc2cc3c(cc2c1)Oc1ccccc1N3.[Cl][Zn][Cl] | 2.91 | 10.3 | 1.44 | 3.3 | 3.28 | 9.01 | 4.73 | 18 | 12.8 | 33.8 | – | – | 2.24 | 6.47 | 1.73 | 4.07 | 11.6 | 63.9 | 31.8 | 16.5
CN(CCc1ccccn1)/[N+]([O-])=N/O (tested in a mixture with another compound) | – | > 100 | – | > 100 | – | > 100 | – | > 100 | – | > 100 | – | – | – | > 100 | – | > 100 | – | > 100 | > 100 | –
CCCc1nn(C)c(CCC(=O)N(Cc2ccccc2)Cc2ccccc2)c1CC | – | – | – | > 100 | – | > 100 | – | > 100 | – | > 100 | – | > 100 | – | > 100 | – | > 100 | – | > 100 | > 100 | –
CC1(C)C=C(N2CCN(C3=CC(C)(C)NC(C)(C)C3)CC2)CC(C)(C)N1 | – | > 100 | – | > 100 | – | – | – | > 100 | – | > 100 | – | > 100 | – | > 100 | – | – | – | > 100 | > 100 | –
COC1/C=C/OC2(C)Oc3c(C)c(O)c4c(O)c(c(/C=N/N(c5ccccc5)c5ccccc5)c(O)c4c3C2=O)NC(=O)C(C)=C/C=C/C(C)C(O)C(C)C(O)C(C)C(OC(C)=O)C1C (configuration not stated) | 2.42 | 11.2 | 3.02 | 12 | 0.963 | 1.93 | – | – | 1.85 | 11.5 | 1.2 | 3 | 1.48 | 5.45 | 4.23 | 11.8 | 1.81 | 7.46 | 6.16 | 1.71
Cc1ccc(-c2nc3ccccc3c(=O)n2NC2OC(CO)C(O)C(O)C2O)cc1 (configuration not stated) | – | > 100 | – | > 100 | – | – | – | > 100 | – | > 100 | – | > 100 | – | > 100 | – | > 100 | – | > 100 | > 100 | –
CC(=O)CCn1[nH]c(=O)c(Cl)c(Cl)c1=O | – | 28.8 | – | > 100 | – | > 100 | – | > 100 | – | > 100 | – | – | – | > 100 | – | > 100 | – | > 100 | > 100 | –
O=C(O)C1C2C=CC(O2)C1C(=O)NCc1ccncc1 (configuration not stated) | – | > 100 | – | > 100 | – | > 100 | – | > 100 | – | > 100 | – | > 100 | – | – | – | > 100 | – | > 100 | – | –
COc1ccc2[nH]cc(Cc3c[nH]c4ccc(OC)cc34)c2c1 | 19.9 | 44.4 | 27.5 | > 100 | 28 | 54.7 | 20.3 | 44 | 15.4 | 33.1 | 15.9 | 29.4 | 14.1 | 27.2 | 18.5 | 48.9 | 17.5 | 31.3 | – | –
O=C1C(c2ccccc2)=[N+]([O-])c2cc([N+](=O)[O-])ccc21 | – | – | – | > 100 | – | 34.9 | – | – | – | 53.5 | – | > 100 | – | 56.5 | – | > 100 | – | 59.6 | 77.4 | –
O=C(CCN1CCCC1)Nc1ccc2c(Nc3ccc(Br)cc3)c3ccccc3nc2c1 | 1.53 | 2.87 | 1.33 | 2.61 | 1.23 | 2.57 | – | – | 1.23 | 2.59 | – | – | 1.16 | 2.5 | 1.39 | 3.02 | 1.3 | 2.69 | 2.73 | 1.26
